# What was measured:
# Type in all cases: in vivo
# Colletotrichum spp. = assay: Antifungal effect against Colletotrichum infection on wounded skin of pepper fruits (Colby synergy)
# Text: wherein X and Y are the observed antifungal activities (in %) of the individual active ingredients x and y, respectively. If the observed antifungal activity (O in %) of the combination exceeds the expected antifungal activity (E in %) of the combination and the synergy factor O/E is thus >1.0, the combined application of the active ingredients leads to a synergistic antifungal effect. […]
# For the treatment, 5 wounds per pepper side were done as previously described. In addition, one wound was done as negative control. Depending on the number of sides of the pepper, 3 to 4 treatments were done per paprika. Per wound 10 μl of treatment was placed on the wound. The treatments were let to dry in a down flow cabinet for about 30 minutes. After drying 5 μl spore suspension at a concentration of 10^7 spores per ml were placed on the wounds. The fungus was isolated from Colletotrichum-infected plant material and identified using techniques known to the person skilled in the art. The pepper were placed as described previously in a transparent container, with the difference that the containers were then placed in a transparent plastic zipper bag. The bags with peppers were placed at room temperature and in the dark for two days. After that the size of the lesions were measured. Assessment of the infection area was 4 days after inoculation. Experiment was performed in 5-fold.
# (§1) The fungus was isolated from Colletotrichum-infected plant material and identified using techniques known to the person skilled in the art. Assessment of the infection area was performed 5 days after inoculation. Experiment was performed in 5-fold.
# as §1, with “The active ingredient imidacloprid was formulated as described in Table 2. Imidacloprid belonging to IRAC Group 4. The” for “The”
# The fungus was isolated from Colletotrichum-infected plant material and identified using techniques known to the person skilled in the art. Assessment of the efficacy was 5 days after inoculation. Experiment was performed in 5-fold.
# The fungus was isolated from Colletotrichum-infected plant material and identified using techniques known to the person skilled in the art. Assessment of the infection area was performed 6 days after inoculation. Experiment was performed in 5-fold.
# The fungus was isolated from Colletotrichum-infected plant material and identified using techniques known to the person skilled in the art. Assessment of the infection area was performed 4 days after inoculation. Experiment was performed in 5-fold.
# Botrytis cinerea = assay: Antifungal effect against Botrytis cinerea infection on wounded peel of banana fruits (Colby synergy)
# Text: (§2) wherein X and Y are the observed antifungal activities (in %) of the individual active ingredients x and y, respectively. If the observed antifungal activity (O in %) of the combination exceeds the expected antifungal activity (E in %) of the combination and the synergy factor O/E is thus >1.0, the combined application of the active ingredients leads to a synergistic antifungal effect.
# (§3) Application: The broad bean pods were washed under tap water, and were subsequently surface sterilized by placing them in a 0.1% sodium hypochlorite solution for 5 minutes. The pods were then rinsed with tap water and dried. Transparent plastic containers were prepared by placing a piece of absorbing paper in the container and adding 25 ml of water, one container per treatment was used. The pods were cut in two, and two halve pods were incubated per box. The skin of broad bean pods was damaged with a needle, ø 2 mm and to a depth of about 3 mm into the fruit, with—depending on the size of the pod—2 to 4 wounds per half pod. In total, 6 wounds were incubated per treatment, of which 1 was used as a control. A volume of 20 microliter of a natamycin/insecticide composition, as presented herein above, was applied by pipette to each wound. The treatments were then left to air-dry. Once dried, a mycelium plug of Sclerotinia sclerotiorum was placed upside down on each wound, so that the mycelium was in direct contact with the wound. Per treatment 5 wounds were inoculated with the fungus, while the 6th and last wound was used as negative non-inoculated control. After inoculation, the containers were directly closed with a transparent plastic lid.
# The infection area was measured 5 days after inoculation.
# A few changes were made for the banana experiments: 5 wounds per banana were made, on each wound 40 microliter of treatments was pipetted. The treatments were then left to air-dry. Once dried, 2 microliter of a freshly prepared inoculum was pipetted on four of the wounds. The inoculum consists of […] potato dextrose broth (PDB) medium containing Botrytis cinerea spores at a concentration of 10^6 spores per ml. The fifth wound was used as negative non-inoculated control. Experiment was performed in 4-fold.
# Assessment of the infection area was performed 3 days after inoculation. Experiment was performed in 4-fold.
# Imidacloprid was formulated as described in Table 2. Assessment of the efficacy was 5 days after inoculation. Experiment was performed in 4-fold.
# Sclerotinia sclerotiorum = assay: Antifungal effect against Sclerotinia sclerotiorum infection on wounded skin of broad bean pods (rot area, Colby synergy)
# Text: The Colby equation (Colby, 1967. Weeds 15:20-22) calculates the expected antifungal activity (E in %) of a combination comprising more than one active ingredients:
# as §2
# • 1) Control (without natamycin and lambda-cyhalothrin) • 2) Natamycin at a level of 15 ppm • 3) Lambda-cyhalothrin (in the product KARATE ZEON® of Syngenta) at a levels of 0.15 ppm, 0.6 ppm, 3 ppm and 15 ppm • 4) Natamycin at a level of 15 ppm combined with lambda-cyhalothrin at levels of 0.15 ppm, 0.6 ppm, 3 ppm or 15 ppm.
# Used pathogen: Sclerotinia sclerotiorum.
# as §3
# All pods were kept at room temperature (20° C.). Wounds of the pods were checked after 30 h of incubation.
# Replicates: All treatments for the broad bean pod experiment were performed on two individual pod halves resulting in 5 wounds per treatment, while a sixth wound served as control.
# The experiments were performed as described in Example 1.
# The experiments were performed as described in Example 1. Assessment of the infection area was 23 h after inoculation. Experiment was performed in 5-fold.
# The experiments were performed as described in Example 1. Thiamethoxam belongs to IRAC Group 4. Assessment of the infection area was 31 hours after inoculation. Experiment was performed in 5-fold.
# The experiments were performed as described in Example 1. The product SPECTRE® of company (Adama) containing the active ingredient chlorfenapyr belonging to IRAC Group 13 was tested. Assessment of the infection area was 23 hours after inoculation. Experiment was performed in 5-fold.
# [1] = natamycin:fipronil 0:0.01 ppm, 6 days after inoculation, Table 19
# [2] = natamycin:fipronil 0:0.04 ppm, 6 days after inoculation, Table 19
# [3] = natamycin:fipronil 0:1 ppm, 6 days after inoculation, Table 19
# [4] = natamycin-insecticide 0:0.004 ppm, 3 days after inoculation, Table 14B
# [5] = natamycin-insecticide 0:0.01 ppm, 3 days after inoculation, Table 14A
# [6] = natamycin-insecticide 0:0.04 ppm, 3 days after inoculation, Table 14A
# [7] = natamycin-insecticide 0:1 ppm, 3 days after inoculation, Table 14A
# [8] = natamycin-insecticide 0:0.01 ppm, 5 days after inoculation, Table 15
# [9] = natamycin-insecticide 0:0.04 ppm, 5 days after inoculation, Table 15
# [10] = natamycin-insecticide 0:1 ppm, 5 days after inoculation, Table 15
# [11] = natamycin-insecticide 0-0.15 ppm, 23 h after inoculation, Table 7
# [12] = natamycin-insecticide 0-0.6 ppm, 23 h after inoculation, Table 7
# [13] = natamycin-insecticide 0-3 ppm, 23 h after inoculation, Table 7
# [14] = natamycin-insecticide 0-15 ppm, 23 h after inoculation, Table 7
# [15] = natamycin-insecticide 0:0.01 ppm, 5 days after inoculation, Table 17
# [16] = natamycin-insecticide 0:0.04 ppm, 5 days after inoculation, Table 17
# [17] = natamycin-insecticide 0:1 ppm, 5 days after inoculation, Table 17
# [18] = natamycin-insecticide 0-0.15 ppm, 23 hours after inoculation, Table 9
# [19] = natamycin-insecticide 0-0.6 ppm, 23 hours after inoculation, Table 9
# [20] = natamycin-insecticide 0-3 ppm, 23 hours after inoculation, Table 9
# [21] = natamycin-insecticide 0-15 ppm, 23 hours after inoculation, Table 9
# [22] = natamycin-insecticide 0:0.004 ppm, 5 days after inoculation, Table 18B
# [23] = natamycin-insecticide 0:0.01 ppm, 5 days after inoculation, Table 18A
# [24] = natamycin-insecticide 0:0.04 ppm, 5 days after inoculation, Table 18A
# [25] = natamycin-insecticide 0:1 ppm, 5 days after inoculation, Table 18A
# [26] = natamycin-insecticide 0:0.01 ppm, 5 days after inoculation, Table 16
# [27] = natamycin-insecticide 0:0.04 ppm, 5 days after inoculation, Table 16
# [28] = natamycin-insecticide 0-0.15 ppm, 31 hours after inoculation, Table 8
# [29] = natamycin-insecticide 0-0.6 ppm, 31 hours after inoculation, Table 8
# [30] = natamycin-insecticide 0-3 ppm, 31 hours after inoculation, Table 8
# [31] = natamycin-insecticide 0-15 ppm, 31 hours after inoculation, Table 8
# [32] = natamycin:abamectin 0:0.01 ppm, 4 days after inoculation, Table 20
# [33] = natamycin:abamectin 0:0.04 ppm, 4 days after inoculation, Table 20
# [34] = natamycin-insecticide 0:0.01 ppm, 4 days after inoculation, Table 13
# [35] = natamycin-insecticide 0:0.04 ppm, 4 days after inoculation, Table 13
# [36] = natamycin-insecticide 0:1 ppm, 4 days after inoculation, Table 13
compound,measurement,setting,value
"N#Cc1nn(-c2c(Cl)cc(C(F)(F)F)cc2Cl)c(N)c1[S+]([O-])C(F)(F)F (racemic) [fipronil, (±)-5-amino-1-(2,6-dichloro-α,α,α-trifluoro-p-tolyl)-4-trifluoromethyl sulfinylpyrazole-3-carbonitrile]",Avg infected area,Colletotrichum spp.; [1],88.2 mm^2
same,Observed antifungal activity,Colletotrichum spp.; [1],−76.1%
same,Avg infected area,Colletotrichum spp.; [2],76.8 mm^2
same,Observed antifungal activity,Colletotrichum spp.; [2],−53.4%
same,Avg infected area,Colletotrichum spp.; [3],80.4 mm^2
same,Observed antifungal activity,Colletotrichum spp.; [3],−60.5%
"CC1(C)[C@H](C(=O)O[C@H](C#N)c2cccc(Oc3ccccc3)c2)[C@@H]1C=C(Cl)Cl [alpha-cypermethrin, [(S)-cyano-(3-phenoxyphenyl)methyl] (1R,3R)-3-(2,2-dichloroethenyl)-2,2-dimethylcyclopropane-1-carboxylate]",Avg infected area,Botrytis cinerea; [4],6.2 mm2
same,Observed antifungal activity,Botrytis cinerea; [4],37.2%
same,Avg infected area,Botrytis cinerea; [5],9.0 mm2
same,Observed antifungal activity,Botrytis cinerea; [5],20.5%
same,Avg infected area,Botrytis cinerea; [6],9.1 mm2
same,Observed antifungal activity,Botrytis cinerea; [6],19.8%
same,Avg infected area,Botrytis cinerea; [7],9.9 mm2
same,Observed antifungal activity,Botrytis cinerea; [7],12.8%
same,Avg infected area,Colletotrichum spp.; [8],44.8 mm2
same,Observed antifungal activity,Colletotrichum spp.; [8],−6.1%
same,Avg infected area,Colletotrichum spp.; [9],22.5 mm2
same,Observed antifungal activity,Colletotrichum spp.; [9],46.7%
same,Avg infected area,Colletotrichum spp.; [10],20.6 mm2
same,Observed antifungal activity,Colletotrichum spp.; [10],51.2%
C/C=C(\C)C(=O)O[C@H]1C[C@@H](OC(C)=O)[C@@]2(C(=O)OC)CO[C@H]3[C@@H](O)[C@@](C)([C@]45O[C@@]4(C)[C@H]4C[C@@H]5O[C@@H]5OC=C[C@@]54O)[C@H]4[C@]1(CO[C@]4(O)C(=O)OC)[C@@H]32 [azadirachtin],Avg infected area,Sclerotinia sclerotiorum; [11],80.2 mm2
same,Observed antifungal activity,Sclerotinia sclerotiorum; [11],41.3%
same,Avg infected area,Sclerotinia sclerotiorum; [12],82.0 mm2
same,Observed antifungal activity,Sclerotinia sclerotiorum; [12],40%
same,Avg infected area,Sclerotinia sclerotiorum; [13],98.3 mm2
same,Observed antifungal activity,Sclerotinia sclerotiorum; [13],28.1%
same,Avg infected area,Sclerotinia sclerotiorum; [14],123.1 mm2
same,Observed antifungal activity,Sclerotinia sclerotiorum; [14],9.9%
"CNC(=O)c1cc(Cl)cc(C)c1NC(=O)c1cc(Br)nn1-c1ncccc1Cl [chlorantraniliprole, 5-bromo-N-[4-chloro-2-methyl-6-(methylcarbamoyl)phenyl]-2-(3-chloropyridin-2-yl) pyrazole-3-carboxamide]",Avg infected area,Colletotrichum spp.; [15],38.8 mm2
same,Observed antifungal activity,Colletotrichum spp.; [15],29.8%
same,Avg infected area,Colletotrichum spp.; [16],55.6 mm2
same,Observed antifungal activity,Colletotrichum spp.; [16],−0.7%
same,Avg infected area,Colletotrichum spp.; [17],66.4 mm2
same,Observed antifungal activity,Colletotrichum spp.; [17],−20.2%
CCOCn1c(-c2ccc(Cl)cc2)c(C#N)c(Br)c1C(F)(F)F [chlorfenapyr],Avg infected area,Sclerotinia sclerotiorum; [18],86.9 mm2
same,Observed antifungal activity,Sclerotinia sclerotiorum; [18],23.6%
same,Avg infected area,Sclerotinia sclerotiorum; [19],71.3 mm2
same,Observed antifungal activity,Sclerotinia sclerotiorum; [19],37.3%
same,Avg infected area,Sclerotinia sclerotiorum; [20],92.3 mm2
same,Observed antifungal activity,Sclerotinia sclerotiorum; [20],18.8%
same,Avg infected area,Sclerotinia sclerotiorum; [21],94.9 mm2
same,Observed antifungal activity,Sclerotinia sclerotiorum; [21],16.5%
"O=[N+]([O-])NC1=NCCN1Cc1ccc(Cl)nc1 [imidacloprid, N-[1-[(6-chloropyridin-3-yl)methyl]-4,5-dihydroimidazol-2-yl]nitramide]",Avg infected area,Botrytis cinerea; [22],16.6 mm2
same,Observed antifungal activity,Botrytis cinerea; [22],43.3%
same,Avg infected area,Botrytis cinerea; [23],35.6 mm2
same,Observed antifungal activity,Botrytis cinerea; [23],27.6%
same,Avg infected area,Botrytis cinerea; [24],53.2 mm2
same,Observed antifungal activity,Botrytis cinerea; [24],−8.3%
same,Avg infected area,Botrytis cinerea; [25],32.4 mm2
same,Observed antifungal activity,Botrytis cinerea; [25],34.1%
same,Avg infected area,Colletotrichum spp.; [26],18.5 mm2
same,Observed antifungal activity,Colletotrichum spp.; [26],56.3%
same,Avg infected area,Colletotrichum spp.; [27],23.3 mm2
same,Observed antifungal activity,Colletotrichum spp.; [27],44.7%
same,Avg infected area,"Colletotrichum spp.; natamycin-insecticide 0:1 ppm, 5 days after inoculation, Table 16",27.9 mm2
"CN1COCN(Cc2cnc(Cl)s2)C1=N[N+](=O)[O-] [thiamethoxam, N-[3-[(2-chloro-1,3-thiazol-5-yl)methyl]-5-methyl-1,3,5-oxadiazinan-4-ylidene]nitramide]",Avg infected area,Sclerotinia sclerotiorum; [28],250.6 mm2
same,Observed antifungal activity,Sclerotinia sclerotiorum; [28],2.9%
same,Avg infected area,Sclerotinia sclerotiorum; [29],270.9 mm2
same,Observed antifungal activity,Sclerotinia sclerotiorum; [29],−4.9%
same,Avg infected area,Sclerotinia sclerotiorum; [30],253.2 mm2
same,Observed antifungal activity,Sclerotinia sclerotiorum; [30],1.9%
same,Avg infected area,Sclerotinia sclerotiorum; [31],254.1 mm2
same,Observed antifungal activity,Sclerotinia sclerotiorum; [31],1.6%
abamectin,Avg infected area,Colletotrichum spp.; [32],29.0 mm2
same,Observed antifungal activity,Colletotrichum spp.; [32],−29.3%
same,Avg infected area,Colletotrichum spp.; [33],30.7 mm2
same,Observed antifungal activity,Colletotrichum spp.; [33],−37.0%
emamectin benzoate [emamection benzoate],Avg infected area,Colletotrichum spp.; [34],30.6 mm2
same,Observed antifungal activity,Colletotrichum spp.; [34],−90.1%
same,Avg infected area,Colletotrichum spp.; [35],16.6 mm2
same,Observed antifungal activity,Colletotrichum spp.; [35],−3.5%
same,Avg infected area,Colletotrichum spp.; [36],24 mm2
same,Observed antifungal activity,Colletotrichum spp.; [36],−49.1%

# — US20250280827A1, “An antifungal composition comprising natamycin and at least one insecticide” (priority 2021, published 2025)
